From patent US20230339983A1, “FLUORESCENT COMPOUNDS SPECIFIC FOR PLURIPOTENT STEM CELLS AND REPROGRAMMING-READY CELLS AND METHODS OF USING THE SAME” (Agency for Science, Technology and Research, priority 2018, published 2023)

Tests used:
[1] = system: reprogrammed SC-ASCs and VS-ASCs; assay: FACS of reprogrammed ASCs stained with BDL-E5 at 14 dpn and iPS colony count; type: cell-based, human; conditions: for iPS colonies from BDL-E5+ versus BDL-E5- sorted cells: seeded on MEF; for percentage of cells staining negatively / percentage of cells staining positively: FACS at 14 dpn
From the text: WAT was isolated from subcutaneous (abdominal region) and visceral (omental region) depots from 2 human volunteers (S15-S16, undergoing bariatric surgery, with approval by the National Healthcare Group Domain Specific Review Board at National Healthcare Group, Singapore) as described previously (Ong, et al. (2014). Stem Cell Reports 2, 171-179; Takeda, et al. (2016). Diabetes 65, 1164-1178). […]. ASCs were isolated from WAT and cultured, as previously described (Sugii, et al. (2011). Nature Protoc 6, 346-358). Cells only up to passage 5 were used for experiments. MSC cell surface markers and multipotency of ASCs used herein were confirmed by flow cytometry and differentiation assays, respectively (Ong, et al. (2014). Stem Cell Reports 2, 171-179).
Reprogrammed ASCs and DPSCs, AiPS and DiPS on D7 or D14 dpn were stained with BDL-E5 for 1 hour and then harvested using TrypLE and resuspended in 1×PBS. The cells were then subjected to FACS in the MoFlo XDP Cell Sorter (Beckman Coulter) under sterile conditions.
Next, the inventors investigated whether the probe was useful in assisting reprogramming selection of obese patient-derived ASCs from subcutaneous (SC) and visceral (VS) fat depots. […] FIG. 10A (iii) and (iv) represents the unstained ASCs. BDL-E5^+ and BDL-E5^− cells sorted using FACS were seeded onto MEF-coated plates.
To investigate the quality of the BDL-E5^+ generated iPS cells, the iPS colonies were passaged for several generations. As shown in FIG. 10B(i), ASC-derived BDL-E5^+ colonies remained well self-renewed and TRA-1-60 positive for subsequent passages.

[2] = system: human iPS cells (AiPS, DiPS colonies); assay: DOFLA screening (primary, secondary, tertiary) of fluorescent probes on iPS cells versus original somatic cells; type: cell-based
Description: The chemical properties of the BDL library are previously described (Jeong et al., 2015). BDL-E5 is based on 4,4-difluoro-4-bora-3a,4a-diaza-s-indacene (BODIPY), with calculated mass of 528.3 and absorption maximum/emission maximum of 578/599 nm. Primary, secondary and tertiary screening of fluorescent probes on AiPS, ASCs, DiPS and DPSCs were performed as described previously (Im, et al. (2010). Angew Chem Int Ed Engl 49, 7497-7500; Kang, et al. (2011). Nat Protoc 6, 1044-1052) and in the Results section. Unless described otherwise, BDL-E5 and CDy1 images were acquired by the Tetramethylrhodamine (TRITC) channel of ImageXpress Micro High-Content Imaging System, which had the Adaptive Background Correction function enabled.
A high-throughput system using in-house Diversity Orientated Fluorescence Library Approach (DOFLA) was employed to screen 46 fluorescent probes that the inventors predicted may specifically recognize pluripotent stem cells. To identify fluorescent probes that detected human pluripotent stem cells, ASCs, ASC-derived iPS (AiPS) cells, DPSCs, and DPSC-derived iPS (DiPS) cells were used. […] Cells were seeded onto 384-well plates (primary screen) or 96-well plates (secondary and tertiary screen) coated with mouse embryonic fibroblasts (MEF) or matrigel (MG) for DOFLA screening (FIG. 1A). After 48 h, cells were stained with library probes (500 nM) for 1 h. Fluorescence was imaged using the ImageXpress System under the following conditions: “No wash” (after 1 h probe incubation), “Wash 0 min” (after one wash with PBS), “Wash 60 min” (after wash and destain for 1 h) and “Wash 180 min” (after wash and destain for 3 h) (FIG. 1A).
Images were analyzed using the MetaXpress Image Acquisition and Analysis software. Following tertiary screening, two probes were shortlisted to develop further as pluripotent probes: BDL-E5 and CDy1. The chemical structure of BDL-E5 is depicted in FIG. 1B.
Secondary screening was performed to confirm that the probes selectively stained different iPS colonies. […] The BDL-E5^+ colonies were also positively stained for the pluripotency marker TRA-1-60.
Based on the primary and secondary screenings for live fluorescent probes that can specifically identify pluripotent cells, BDL-E5 and CDy1 were chosen as two probes to further analyze. Tertiary screening was performed using the two probes on AiPS colonies under the following probe staining conditions: No wash, Wash 0 min, Wash 60 min, and Wash 180 min.

[3] = system: reprogrammed ASCs and DPSCs on microcarriers; assay: Fluorescent probe staining on Cytodex 3 microcarriers (3D culture); type: cell-based, human; conditions: 14 and 21 dpn
Description: Reprogrammed monolayer ASCs and DPSCs were dissociated into single cell suspension using Dispase. Single cell suspension was transferred into a 6-well Suspension Culture Plate (Greiner bio-one) with Matrigel (Geltrex™, ThermoFisher)-coated Cytodex 3 microcarrier in 4 ml of mTeSR1 supplemented with 10 μM of Rock Inhibitor Y27632 (Calbiochem). The plate was placed on an orbital shaker (110 rpm) for at least 2 hours for cell attachment. Afterward, the plate was transferred to static condition and incubated at 37° C./5% CO2. Media change was carried out with mTeSR1 daily thereafter by aspirating […] of spent medium from the well and adding 4 ml of fresh media (80% medium exchange). On Day 7, the cells on microcarriers were supplemented and maintained with 4 ml of mTeSR1+SMC4 media. 80% medium change was carried out every day.
BDL-E5 probe staining of reprogrammed ASCs and DPSCs on microcarriers was carried out on Day 14 and 21 dpn. The microcarrier culture was washed twice with sterile D-PBS. Prior to staining, media was changed to mTeSR1 with 500 nM BDL-E5 probe and Alexa Fluor® 488 Mouse anti-human TRA-1-60 (200× dilution) (BD Pharmingen™). Cultures were incubated for 1 hour. The cells were then washed twice with D-PBS and replaced with mTeSR1 prior to imaging. Images were taken using Axio Observer Fluorescent Microscope (Carl Zeiss). […]

COc1cc(F)c(/C=C/c2cc(C)c3n2[B-](F)(F)[N+]2=C(CCC(=O)NCCN(C)C)C=CC2=C3)cc1OC [BDL-E5]
iPS colonies from BDL-E5+ versus BDL-E5- sorted cells ([1]; SC-ASCs sorted at 14 dpn): gave rise to more colonies than the BDL-E5^− population
percentage of cells staining negatively ([1]; SC-ASCs): ~11%
percentage of cells staining positively ([1]; SC-ASCs): ~33%
iPS colonies from BDL-E5+ versus BDL-E5- sorted cells ([1]; VS-ASCs sorted at 14 dpn): at least some BDL-E5^+ VS-ASCs gave rise to iPS colonies
percentage of cells staining negatively ([1]; VS-ASCs): ~24%
percentage of cells staining positively ([1]; VS-ASCs): ~19%
intensity of fluorescence in human iPS cells compared with original somatic cells and MEFs ([2]; 500 nM probe, 1 h, after tertiary screening): significantly increased intensity of fluorescence
staining of AiPS colonies compared with original somatic cells (ASCs) ([2]; primary screening, MEF- or MG-coated plates, 500 nM, 1 h, BDL-E5 No wash): increased BDL-E5 staining
staining of DiPS colonies compared with original DPSCs ([2]; secondary screening, MEF- or MG-coated plates, 500 nM, 1 h, BDL-E5 No wash): significantly increased fluorescence intensity
wash condition under which staining (signal-to-background ratio) was greatest ([2]; tertiary screening, AiPS colonies on MEF-coated plates): No wash
wash condition under which staining was greatest ([2]; tertiary screening, AiPS colonies on MG-coated plates): No wash
staining of reprogrammed cells on microcarriers ([3]; 500 nM, 1 h): clearly observed
background staining of Cytodex 3 microcarriers themselves [3]: no background BDL-E5 staining
